Assay results from patent US7825107B2, “Method of treating men suffering from chronic nonbacterial prostatitis with SERM compounds or aromatase inhibitors” (Hormos Medical Ltd., priority 2006, dated 2010).

Key:
[1] = system: effect of estradiol on the prostate (FRA2 or PR expression); experiment: Estrogen antagonist effect in the prostate of castrated Noble rats, with and without estradiol, measured by FRA2 or PR expression; format: in vivo; conditions: three weeks, 3, 10 and 30 mg/kg, with and without estradiol 70 ug/day
[2] = Estrogen antagonist treatment of prostatitis in rats treated with T and E2; format: in vivo; conditions: 3 weeks T 240 ug/day and E2 70 ug/day, 2 doses of 5 mg/kg on the third week
From the text: As prostatitis can be reversed by administering an antiestrogen, the condition is seen to be estrogen dependent.

| Compound | effect of estradiol on the prostate, measured by FRA2 or PR expression [1] | effect on prostatitis compared to the control group treated with T and E2 only [2] |
| --- | --- | --- |
| OCCOCCOc1ccc(/C(=C(/CCCl)c2ccccc2)c2ccccc2)cc1 [fispemifene] | dose dependently inhibited the effect of estradiol on the prostate | – |
| C[C@]12CC[C@@H]3c4ccc(O)cc4C[C@@H](CCCCCCCCC[S+]([O-])CCCC(F)(F)C(F)(F)F)[C@H]3[C@@H]1CC[C@@H]2O (some centres unmarked) [fulvestrant] | – | significantly reduced the prostatitis |
